Test results taken from patent publication US20230279025A1, “KRAS G12D INHIBITORS” (Mirati Therapeutics, Inc., priority 2020, published 2023).

Molecular target: KRas G12D (Homo sapiens (Human), UniProt P01116, G12D)
Assay: KRas G12D Binding Assay (TR-FRET displacement of Cy5 labelled tracer)
Details: GDP-loaded KRAS G12D (amino acids 1:169), 60 minute incubation at 22° C.
Experimental: After a 60 minute incubation at 22° C., the reaction was measured using a PerkinElmer EnVision multimode plate reader via TR-FRET dual wavelength detection, and the percent of control (POC) calculated using a ratiometric emission factor. […] The POC values were fit to a 4-parameter logistic curve and the IC50 value was determined as the concentration where the curve crosses 50 POC.
ND stands for “not determined.”

Sequence of KRas G12D (P01116 other isoform, or with tags, fused parts or gaps G12D): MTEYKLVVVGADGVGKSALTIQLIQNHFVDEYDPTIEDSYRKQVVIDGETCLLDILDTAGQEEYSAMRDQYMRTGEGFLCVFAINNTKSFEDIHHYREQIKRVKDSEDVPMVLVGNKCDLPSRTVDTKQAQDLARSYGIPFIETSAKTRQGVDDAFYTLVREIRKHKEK

| Compound | IC50 |
| --- | --- |
| C#CCc1ccc(O)cc1-c1ncc2c(N3C[C@H]4CC[C@@H](C3)N4)nc(OCC34CCCN3CCC4)nc2c1F [Example 279, 3-(4-((1R,5S)-3,8-diazabicyclo[3.2.1]octan-3-yl)-8-fluoro-2-((hexahydro-1H-pyrrolizin-7a-yl)methoxy)pyrido[4,3-d]pyrimidin-7-yl)-4-(prop-2-yn-1-yl)phenol] | 1.6 nM |
| CC1(C)CN2CCCC2(COc2nc(N3CC4CCC(C3)N4)c3cnc(-c4cccc5cccc(Cl)c45)c(F)c3n2)C1 [Example 228, 4-((1R,5S)-3,8-diazabicyclo[3.2.1]octan-3-yl)-7-(8-chloronaphthalen-1-yl)-2-((2,2-dimethyltetrahydro-1H-pyrrolizin-7a(5H)-yl)methoxy)-8-fluoropyrido[4,3-d]pyrimidine bis-2,2,2-trifluoroacetate] | 87.7 nM |
| FCCc1cccc2cccc(-c3ncc4c(N5C[C@H]6CC[C@@H](C5)N6)nc(OCC56CCCN5CCC6)nc4c3F)c12 [Example 248, 4-((1R,5S)-3,8-diazabicyclo[3.2.1]octan-3-yl)-8-fluoro-7-(8-(2-fluoroethyl)naphthalen-1-yl)-2-((tetrahydro-1H-pyrrolizin-7a(5H)-yl)methoxy)pyrido[4,3-d]pyrimidine] | 3.2 nM |
| CN1C[C@H](OC(=O)NCCOCc2ccc(O)cc2)C[C@H]1COc1nc(N2C[C@H]3CC[C@@H](C2)N3)c2cnc(-c3cccc4cccc(Cl)c34)c(F)c2n1 [Example 260, (3R,5S)-5-(((4-((1R,5S)-3,8-diazabicyclo[3.2.1]octan-3-yl)-7-(8-chloronaphthalen-1-yl)-8-fluoropyrido[4,3-d]pyrimidin-2-yl)oxy)methyl)-1-methylpyrrolidin-3-yl (2-((4-hydroxybenzyl)oxy)ethyl)carbamate] | 107 nM |
| CNC(=O)O[C@@H]1CN2CCC[C@]2(COc2nc(N3C[C@H]4CC[C@@H](C3)N4)c3cnc(-c4cccc5cccc(Cl)c45)c(F)c3n2)C1 [Example 435, (2S,7aR)-7a-(((4-((1R,5S)-3,8-diazabicyclo[3.2.1]octan-3-yl)-7-(8-chloronaphthalen-1-yl)-8-fluoropyrido[4,3-d]pyrimidin-2-yl)oxy)methyl)hexahydro-1H-pyrrolizin-2-yl methylcarbamate] | 28.2 nM |
| Fc1c(-c2cncc3cccc(Cl)c23)ncc2c(N3C[C@H]4CC[C@@H](C3)N4)nc(OC[C@]34CCCN3C[C@@H](F)C4)nc12 [Example 203, 4-((1R,5S)-3,8-diazabicyclo[3.2.1]octan-3-yl)-7-(5-chloroisoquinolin-4-yl)-8-fluoro-2-(((2S,7aR)-2-fluorotetrahydro-1H-pyrrolizin-7a(5H)-yl)methoxy)pyrido[4,3-d]pyrimidine] | 28.1 nM |
| Fc1c(-c2cccc3c2CC2CC32)ncc2c(N3CC4CCC(C3)N4)nc(OC[C@@]34CCCN3C[C@H](F)C4)nc12 (stereo partly drawn) [Example 438, 4-(3,8-diazabicyclo[3.2.1]octan-3-yl)-8-fluoro-2-(((2R,7aS)-2-fluorotetrahydro-1H-pyrrolizin-7a(5H)-yl)methoxy)-7-(1,1a,6,6a-tetrahydrocyclopropa[a]inden-5-yl)pyrido[4,3-d]pyrimidine] | 20.1 nM |
| CCC(C)c1ccccc1-c1ncc2c(N3C[C@H]4CC[C@@H](C3)N4)nc(OCC34CCCN3CCC4)nc2c1F (stereo partly drawn) [Example 300, 4-((1R,5S)-3,8-diazabicyclo[3.2.1]octan-3-yl)-7-(2-(sec-butyl)phenyl)-8-fluoro-2-((hexahydro-1H-pyrrolizin-7a-yl)methoxy)pyrido[4,3-d]pyrimidine] | 768 nM |
| Fc1c(-c2cccc3cccc(OC(F)F)c23)ncc2c(N3C[C@H]4CC[C@@H](C3)N4)nc(OCC34CCCN3CCC4)nc12 [Example 346, 4-((1R,5S)-3,8-diazabicyclo[3.2.1]octan-3-yl)-7-(8-(difluoromethoxy)naphthalen-1-yl)-8-fluoro-2-((tetrahydro-1H-pyrrolizin-7a(5H)-yl)methoxy)pyrido[4,3-d]pyrimidine] | 10.5 nM |
| O[C@@H]1C[C@@H]2CN(c3nc(OCCc4ccc(F)cn4)nc4c(F)c(-c5cccc6cccc(Cl)c56)ncc34)C[C@H]1N2 [Example 32, (1R,5R,6R)-3-(7-(8-chloronaphthalen-1-yl)-8-fluoro-2-(2-(5-fluoropyridin-2-yl)ethoxy)pyrido[4,3-d]pyrimidin-4-yl)-3,8-diazabicyclo[3.2.1]octan-6-ol] | 2140 nM |
| c1ccc2c(-c3cc4nc(OCC56CCCN5CCC6)nc(N5C[C@H]6CC[C@@H](C5)N6)c4cn3)cccc2c1 [Example 233, 4-((1R,5S)-3,8-diazabicyclo[3.2.1]octan-3-yl)-7-(naphthalen-1-yl)-2-((tetrahydro-1H-pyrrolizin-7a(5H)-yl)methoxy)pyrido[4,3-d]pyrimidine] | 387 nM |
| COc1c(Cl)cccc1-c1ncc2c(N3C[C@H]4CC[C@@H](C3)N4)nc(OCC34CCCN3CCC4)nc2c1F [Example 311, 4-((1R,5S)-3,8-diazabicyclo[3.2.1]octan-3-yl)-7-(3-chloro-2-methoxyphenyl)-8-fluoro-2-((hexahydro-1H-pyrrolizin-7a-yl)methoxy)pyrido[4,3-d]pyrimidine] | 135 nM |
| CO[C@H]1C[C@@H](COc2nc(N3C[C@H]4CC[C@@H](C3)N4)c3cnc(-c4cccc5cccc(Cl)c45)c(F)c3n2)N(C)C1 [Example 149, 4-((1R,5S)-3,8-diazabicyclo[3.2.1]octan-3-yl)-7-(8-chloronaphthalen-1-yl)-8-fluoro-2-(((2S,4S)-4-methoxy-1-methylpyrrolidin-2-yl)methoxy)pyrido[4,3-d]pyrimidine] | 870 nM |
| OCc1nccn1CCOc1nc(N2CC3CCC(C2)N3)c2cnc(-c3cccc4cccc(Cl)c34)c(F)c2n1 [Example 171, (1-(2-((4-(3,8-diazabicyclo[3.2.1]octan-3-yl)-7-(8-chloronaphthalen-1-yl)-8-fluoropyrido[4,3-d]pyrimidin-2-yl)oxy)ethyl)-1H-imidazol-2-yl)methanol] | 757 nM |
| CC(C)(N)COc1nc(N2CC3CCC(C2)N3)c2cnc(-c3cccc4cccc(Cl)c34)c(F)c2n1 [Example 387, bis(2,2,2-trifluoroacetate)] | 533 nM |
| CCc1c(F)ccc2cc(O)cc(-c3ncc4c(N5C[C@H]6CC[C@@H](C5)N6)nc(OC[C@]56CCCN5[C@@H](COC(=O)N(C)C)CC6)nc4c3F)c12 [Example 441, ((3R,7aR)-7a-(((4-((1R,5S)-3,8-diazabicyclo[3.2.1]octan-3-yl)-7-(8-ethyl-7-fluoro-3-hydroxynaphthalen-1-yl)-8-fluoropyrido[4,3-d]pyrimidin-2-yl)oxy)methyl)hexahydro-1H-pyrrolizin-3-yl)methyl dimethylcarbamate] | 0.5 nM |
| Oc1cc(-c2ncc3c(N4CC5CCC(C4)N5)nc(OCC45CCCN4C[C@H](F)C5)nc3c2F)c2c(Cl)cccc2c1 (mixture of isomers) [Example 330, 4-(4-((1R,5S)-3,8-diazabicyclo[3.2.1]octan-3-yl)-8-fluoro-2-((2-fluorotetrahydro-1H-pyrrolizin-7a(5H)-yl)methoxy)pyrido[4,3-d]pyrimidin-7-yl)-5-chloronaphthalen-2-ol (racemic, trans)] | 2.5 nM |
| CN1CC[C@@H](COc2nc(N3C[C@H]4CC[C@@H](C3)N4)c3cnc(-c4cccc5cccc(Cl)c45)c(F)c3n2)C1 [Example 356, 4-((1R,5S)-3,8-diazabicyclo[3.2.1]octan-3-yl)-7-(8-chloronaphthalen-1-yl)-8-fluoro-2-(((R)-1-methylpyrrolidin-3-yl)methoxy)pyrido[4,3-d]pyrimidine] | 87.2 nM |
| C[C@H]1C[C@H]1c1ccccc1-c1ncc2c(N3C[C@H]4CC[C@@H](C3)N4)nc(OCC34CCCN3CCC4)nc2c1F [Example 287, 4-((1R,5S)-3,8-diazabicyclo[3.2.1]octan-3-yl)-8-fluoro-2-((hexahydro-1H-pyrrolizin-7a-yl)methoxy)-7-(2-((1R,2S)-2-methylcyclopropyl)phenyl)pyrido[4,3-d]pyrimidine] | 90.7 nM |
| Fc1c(-c2c(C(F)(F)F)ccc3[nH]ncc23)ncc2c(N3C[C@H]4CC[C@@H](C3)N4)nc(OCC34CCCN3CCC4)nc12 [Example 344, 4-((1R,5S)-3,8-diazabicyclo[3.2.1]octan-3-yl)-8-fluoro-2-((tetrahydro-1H-pyrrolizin-7a(5H)-yl)methoxy)-7-(5-(trifluoromethyl)-1H-indazol-4-yl)pyrido[4,3-d]pyrimidine] | 10.9 nM |
| CN1CCC[C@H]1COc1nc(N2CC3CCC(C2)N3)c2cnc(-c3c(Cl)c(O)cc4ccccc34)c(F)c2n1 [Example 337, 4-(4-(3,8-diazabicyclo[3.2.1]octan-3-yl)-8-fluoro-2-(((S)-1-methylpyrrolidin-2-yl)methoxy)pyrido[4,3-d]pyrimidin-7-yl)-3-chloronaphthalen-2-ol] | 2.2 nM |
| Cc1cc2sc(N)nc2c(-c2ncc3c(N4C[C@H]5CC[C@@H](C4)N5)nc(OCC45CCCN4CCC5)nc3c2F)c1C [Example 456, 4-(4-((1R,5S)-3,8-diazabicyclo[3.2.1]octan-3-yl)-8-fluoro-2-((hexahydro-1H-pyrrolizin-7a-yl)methoxy)pyrido[4,3-d]pyrimidin-7-yl)-5,6-dimethylbenzo[d]thiazol-2-amine] | 966 nM |
| Fc1c(-c2cccc3cccc(C(F)(F)F)c23)ncc2c(N3C[C@H]4CC[C@@H](C3)N4)nc(OC[C@@]34CCCN3C[C@H](F)C4)nc12 [Example 419, 4-((1R,5S)-3,8-diazabicyclo[3.2.1]octan-3-yl)-8-fluoro-2-(((2R,7aS)-2-fluorotetrahydro-1H-pyrrolizin-7a(5H)-yl)methoxy)-7-(8-(trifluoromethyl)naphthalen-1-yl)pyrido[4,3-d]pyrimidine] | 50.9 nM |
| O[C@@H]1C[C@@H]2CN(c3nc(OCCc4nccn4C(F)F)nc4c(F)c(-c5cccc6cccc(Cl)c56)ncc34)C[C@H]1N2 [Example 166, (1R,5R,6R)-3-(7-(8-chloronaphthalen-1-yl)-2-(2-(1-(difluoromethyl)-1H-imidazol-2-yl)ethoxy)-8-fluoropyrido[4,3-d]pyrimidin-4-yl)-3,8-diazabicyclo[3.2.1]octan-6-ol] | 1290 nM |
